We go through six molecules from US20100055113A1, “CELLULAR RECEPTOR FOR ANTIPROLIFERATIVE FACTOR” (The University of Maryland, Baltimore, priority 2006, published 2010).

Ends that are not written are not given here. glycan = not defined here

The target of assay [1] is T1, CKAP4/p63 (Homo sapiens, UniProt Q07065).
T1 construct: endogenous in cells; host or cells: explanted primary normal human bladder epithelial cells
T1 sequence (Q07065 1-602): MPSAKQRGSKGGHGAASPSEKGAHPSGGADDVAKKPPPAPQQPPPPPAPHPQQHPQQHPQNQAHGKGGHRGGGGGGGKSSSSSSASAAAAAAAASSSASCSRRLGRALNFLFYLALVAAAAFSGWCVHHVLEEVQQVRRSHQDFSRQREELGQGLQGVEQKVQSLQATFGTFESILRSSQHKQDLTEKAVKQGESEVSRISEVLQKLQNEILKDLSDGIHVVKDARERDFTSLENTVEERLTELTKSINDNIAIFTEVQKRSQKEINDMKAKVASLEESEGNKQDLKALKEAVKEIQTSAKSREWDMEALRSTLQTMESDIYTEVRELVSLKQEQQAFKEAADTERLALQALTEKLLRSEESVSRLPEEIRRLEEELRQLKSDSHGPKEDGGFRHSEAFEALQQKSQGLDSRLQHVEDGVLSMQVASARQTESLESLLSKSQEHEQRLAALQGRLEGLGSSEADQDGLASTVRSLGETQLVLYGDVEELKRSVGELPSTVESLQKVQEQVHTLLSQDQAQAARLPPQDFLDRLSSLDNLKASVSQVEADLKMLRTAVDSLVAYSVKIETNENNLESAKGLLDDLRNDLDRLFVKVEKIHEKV
As to the kind of experiment: Sensitivity of siRNA-electroporated normal bladder epithelial cells to APF (thymidine incorporation). The assay is classed as cell-based. The settings on record: electroporation with siRNA, FIG. 5B. Here is the method: Cell proliferation was measured by ^3H-thymidine incorporation into explanted normal human bladder epithelial cells, as previously described (Keay et al., 2004; Keay et al., 1996). Briefly, purified lyophilized synthetic APF was resuspended in acetonitrile/distilled water (1:1), diluted in serum-free MEM (containing only glutamine and antibiotics/antimycotics), and applied to the cells; cell controls received acetonitrile/distilled water diluted in serum-free MEM alone. Cells were then incubated at 37° C. in a 5% CO2 atmosphere for 48 hours. The cell contents harvested and methanol-fixed onto glass fiber filter paper, and the amount of radioactivity incorporated determined. Significant inhibition of 3H-thymidine incorporation was defined as a mean decrease in counts per minute of greater than 2 standard deviations from the mean of control cells for each plate. Double stranded siRNA corresponding to nucleotides 594-616 ([NT] sense strand; SEQ ID NO:5) of CKAP4/p63 (NM-006825) and a scrambled double stranded negative control siRNA ([NT] sense strand; SEQ ID NO:13) were prepared by preincubating single-stranded sense and anti-sense strands prepared with double A overhangs in serum-free MEM medium at 37° C. for 1 hour. […]
Background: Uptake of a labelled nucleoside into DNA is a usual measure of proliferation.

For assay [2], the system named is CKAP4/p63. The assay is described as follows: Western blot of CKAP4/p63 protein expression after siRNA electroporation. Type of assay: cell-based, human. The settings on record: normal bladder epithelial cells, electroporation with siRNA; FIG. 5A. Here is the method: Solubilized high affinity APF-binding bladder epithelial cell proteins were prepared as described above. Solubilized bladder epithelial cell membrane proteins were prepared by rinsing cells in the culture flasks with ice cold PBS, then scraping the cells into ice-cold extraction buffer (20 mM Tris/HCL, pH 7.4, containing 50 μg/ml PMSF, 2 μg/ml aprotinin, 100 μM tosyl-lysine-chloromethyl-ketone, 1 μM pepstatin A, and 1 μg/ml diisopropylfluorophosphate). The cell slurry was then vortexed until homogeneous, and centrifuged at 4° C. for 10 minutes at 14,000 rpm. Supernatant was removed, and the pelleted membrane fraction was washed once with ice cold extraction buffer, repelleted, and proteins were solubilized using ice cold extraction buffer containing 1% Triton X-100. Solubilized total cell proteins were extracted into ice cold RIPA buffer containing 1.0% NP40, as previously described (Keay et al., 2003). Protein concentration of solubilized protein samples was measured using a Folin reagent-based protein assay kit (Bio-Rad). […]
(In western blotting, separated proteins are transferred to a membrane and probed.)

Assay [3] concerns normal human bladder epithelial cells. The settings on record: bladder epithelial cell proliferation; background statement; cited from earlier work.
The test system is the same in assay [4]. The assay is described as follows: 3H-thymidine incorporation cell proliferation assay. The assay is classed as cell-based. The procedure:
Cell proliferation was measured by ^3H-thymidine incorporation into explanted normal human bladder epithelial cells, as previously described (Keay et al., 2004; Keay et al., 1996). Briefly, purified lyophilized synthetic APF was resuspended in acetonitrile/distilled water (1:1), diluted in serum-free MEM (containing only glutamine and antibiotics/antimycotics), and applied to the cells; cell controls received acetonitrile/distilled water diluted in serum-free MEM alone. Cells were then incubated at 37° C. in a 5% CO2 atmosphere for 48 hours. The cell contents harvested and methanol-fixed onto glass fiber filter paper, and the amount of radioactivity incorporated determined. Significant inhibition of 3H-thymidine incorporation was defined as a mean decrease in counts per minute of greater than 2 standard deviations from the mean of control cells for each plate.

Assay [5] has as its target T2, cytoskeleton-associated protein 4/p63 (CKAP4/p63) (human, UniProt Q07065 1-602).
T2 sequence: T1 sequence (Q07065 1-602)
The assay is described as follows: cell-based or functional assay.

Consider “5′-AAUUCUGUAUGCUA CCUGUAGAA-3′ sense strand [scrambled siRNA, reference compound]”, for which, in assay [1], the “decrease in sensitivity of the cells to APF” value was “no decrease in sensitivity to APF”. For the same molecule, the “CKAP4/p63 protein expression relative to beta actin” value in assay [2] is listed as “little or no change”. In the same order, the values of “5′-AACUUUUGAGUCCAUCUUGAGAA-3′ sense strand [double-stranded siRNA for CKAP4/p63]” are “approximately one thousand-fold” and “decreased protein expression of CKAP4/p63 relative to beta actin”. As for “sialoglycopeptide inhibitor of bladder epithelial cell proliferation; nonapeptide TVPAAVVVA (SEQ ID NO:1) glycosylated on N-terminal threonine [APF, Sialic acid-galactose-N-acetylgalactosamine-threonine-valine-proline-alanine-alanine-valine-valine-valine-alanine]”, in assay [3], the “potency of APF (EC50)” value is “picomolar range”. For “biotinylated synthetic APF: APF biotinylated on the C-terminal lysine residue, carrying Galβ1-3GalNAcα-O-threonine (TVPAAVVVAK)”, in assay [4] (primary normal bladder epithelial cells), the “antiproliferative activity as compared to the parent synthetic GalNAcβ1-3Gal-APF congener” value was “approximately 80%”. For the molecule “rhodamine-labeled APF: synthetic APF glycopeptide with C-terminal lysine labelled with 5(6)-Rhodamine B isothiocyanate (TVPAAVVVAK)”, the “antiproliferative activity relative to synthetic, unlabeled APF” value in assay [4] (normal bladder epithelial cells) was “approximately 85%”.

B1: synthetic APF (antiproliferative factor) (peptide)
peptide: T(glycan)VPAAVVVA
modifications: reading uncertain; also: exact glycoform not given here
Regarding B1, the “sensitivity of the cells to APF after siRNA knockdown of CKAP4/p63 (3H-thymidine incorporation)” value in assay [5] was about 1000 fold.
